{"source": "patent US8748369B2", "about": "“Use of targeted nitroxide agents in bone healing” (University of Pittsburgh-Of the Commonwealth System of …, priority 2009, dated 2014)", "key": {"[1]": {"system": "mitochondria of 32D c13 hemopoietic cells", "experiment": "Mass spectrometry of compounds in mitochondria isolated from 32D cl3 cells", "format": "cell-based, mouse", "details": "100 μM; for permeation of the mitochondrial membrane (unconjugated compound): two hours at 37° C.; for Fmole/l 0 M mitochondrial protein (relative quantification of conjugate concentration at the target site): mouse, 2 h", "method": "An unconjugated and conjugated NOS antagonist, (AMT, 100 μM) and an unconjugated and conjugated nitroxide derivative (4-amino-TEMPO, 100 μM) were incubated for two hours at 37° C. with 32D c13 hemopoietic cells.\nFollowing incubation, the cells were lysed and the mitochondria isolated for a mass spectrometry analysis where compounds isolated from mitochondria were identified as Na+ adducts. […] Thus, the targeting peptides successfully direct a NOS antagonist and a nitroxide to the mitochondria.\nQuantitative mass spectrometry studies were used to compare the effectiveness of several AMT peptide conjugates in permeating the mitochondrial membrane, specifically XJB-5-234, XJB-5-133, XJB-5-241, and XJB-5-127. The Fmole/10 μM mitochondrial protein ratio provides a relative quantification of conjugate concentration at the target site."}, "[2]": {"system": "mouse embryonic cells (MEC), mitochondria", "experiment": "EPR-based analysis of integration and reduction of nitroxide conjugates in MECs", "format": "cell-based", "details": "MECs incubated with 10 μM compound", "method": "Electron paramagnetic resonance (“EPR”) spectroscopy was used to monitor the cellular delivery of compounds 5a and 5b shown in FIG. 3 in mouse embryonic cells (“MEC”).\nThe following conditions were used during the EPR-based analysis of the integration and reduction of nitroxide Gramicidin S-peptidyl conjugates in MECs. The MECs at a concentration of 10 million MECs per mL were incubated with 10 μM of 4-AT and compound 5a, respectively. Recovered nitroxide radicals in whole cells, mitochondria, and cytosol fractions were resuspended in phosphate buffer saline (“PBS”) in the presence and absence, respectively, of 2 μM K3Fe(CN)6."}, "[3]": {"system": "mouse embryonic cells (MEC)", "experiment": "ActD-induced apoptosis in MECs (PS externalization, caspase-3, DNA fragmentation)", "format": "cell-based", "details": "low concentrations (10 μM)", "source_text": "Cells that annexin V-positive and PI-negative were considered apoptotic."}, "[4]": {"system": "32D cl 3 murine hematopoietic cells", "experiment": "Irradiation survival curves of 32D cl 3 cells", "format": "cell-based, mouse", "details": "cells incubated in compound", "method": "FIG. 16 illustrates the effect of GS conjugated nitroxide, XJB-5-125, on gamma-irradiation dose survival curves of 32D cl 3 murine hematopoietic cells.\nIrradiation survival curves were performed on cells from the 32D cl 3 mouse hematopoietic progenitor cell line, incubated in 10 μM JP4-039 for 1 hour before irradiation, or plated in methycellulose containing 10 μM JP4-030 after irradiation. Cells were irradiated from 0 to 8 Gy, plated in 0.8% methycellulose containing media, and incubated for 7 days at 37° C. Colonies of greater than 50 cells were counted and data analyzed by linear quadratic and single-hit, multi-target models."}, "[5]": {"system": "rat ileal mucosal permeability following hemorrhagic shock", "experiment": "Intestinal mucosal permeability assay (FD4) after hemorrhagic shock", "format": "in vivo", "details": "intraluminal", "method": "Intestinal Mucosal Permeability Assay. Animals were allowed access to water but not food for 24 h prior to the experiment in order to decrease the volume of intestinal contents. The rats were instrumented as described above. A midline laparotomy was performed and the small intestine was exteriorized from the duodenojejunal junction to the ileocecal valve. A small incision was made on the antimesenteric aspect of the proximal small intestine and saline solution (1.5 ml) was injected. The bowel was ligated proximally and distally to the incision with 4-0 silk (Look, Reading, Pa.).\nThe small intestine was compressed gently in aboral direction along its length to displace intestinal contents into the colon. Starting 5 cm from the ileocecal valve, the ileum was partitioned into six contiguous water-tight segments. […]\nThe remaining four other segments were injected with solutions containing either 4-hydroxy-2,2,6,6-tetramethylpiperidine-N-oxyl (TEMPOL) or one of the Gramicidin S-based compounds. Four different final concentrations of TEMPOL in normal saline were evaluated: 0.1, 1, 5 and 20 mM. […]\nFluorescence of FD4 in the solution inside the beaker and within each gut sac was measured using a fluorescence spectrophotometer (LS-50, Perkin-Elmer, Palo Alto, Calif.) at an excitation wavelength of 492 nm and an emission wavelength of 515 nm. […]"}, "[6]": {"system": "rats subjected to volume-controlled hemorrhagic shock", "experiment": "Survival of rats subjected to volume-controlled hemorrhagic shock", "format": "in vivo, rat", "details": "2 μmol/kg intravenous, no resuscitation", "method": "Survival of Rats Subjected to Volume-controlled Hemorrhagic Shock. Following surgical preparation and a 5-min stabilization period to obtain baseline readings, rats were subjected to hemorrhagic shock. Bleeding was carried out in 2 phases.\nInitially, 21 ml/kg of blood was withdrawn over 20 min. Immediately thereafter, an additional 12.5 ml/kg of blood was withdrawn over 40 min. Thus, hemorrhage occurred over a total period of 60 min and the total blood loss was 33.5 ml/kg or approximately 55% of the total blood volume. Rats were randomly assigned to receive XJB-5-131 (2 μmmol/kg) or its vehicle, a 33:67 (v/v) mixture of DMSO and normal saline. XJB-5-131 solution or vehicle alone was administered as a continuous infusion during the last 20 min of the hemorrhage period. The total volume of fluid infused was 2.8 ml/kg and it was administered intravenously using a syringe pump (KD100, KD Scientific, New Hope, Pa.). […] At the end of the 6 hour observation period, animals that were still alive were euthanized with an overdose of KCl.\nBlood pressure was recorded continuously using a commercial strain-gauge transducer, amplifier, and monitor (590603a, SpaceLabs, Redmond, Wash.). […] Hemoglobin concentration [Hb], lactate and glucose concentration were determined using an auto-analyzer (Model ABL 725, Radiometer Copenhagen, Westlake, Ohio). […]"}}, "data": [{"smiles": "CC1CCN=C(N)S1", "note": "(stereo not drawn) [AMT, 2-amino-6-methyl-thiazine, reference compound]", "values": [{"measurement": "permeation of the mitochondrial membrane (unconjugated compound)", "setting": "[1]", "result": "do not enter the mitochondria membrane in substantial quantities"}]}, {"smiles": "CC1(C)CC(N)CC(C)(C)N1[O]", "note": "[Compound 4-AT, 4-amino-TEMPO, reference compound]", "values": [{"measurement": "integration into cells and mitochondria (EPR signal of nitroxide radicals)", "setting": "[2]", "result": "did not effectively permeate cells or the mitochondria"}, {"measurement": "protection of MECs against ActD-induced apoptosis", "setting": "[3]", "result": "afforded no protection"}, {"measurement": "permeation of the mitochondrial membrane (unconjugated compound)", "setting": "[1]", "result": "only permeate the mitochondrial membrane with the assistance of the attached GS-derived targeting sequence"}]}, {"smiles": "CC1(C)CC(O)CC(C)(C)N1[O]", "note": "[TEMPOL, 4-hydroxy-2,2,6,6-tetramethylpiperidine-N-oxyl, reference compound]", "values": [{"measurement": "Do of gamma-irradiation survival curve", "setting": "[4]", "result": 1.209, "unit": "Gy"}]}, {"smiles": "CC(C)C[C@@H](/C=C/[C@H](Cc1ccccc1)C(=O)N1CCC[C@H]1C(=O)N[C@H](C(=O)N[C@@H](CCCNC(=O)OCc1ccccc1)C(=O)NC1CC(C)(C)N([O])C(C)(C)C1)C(C)C)NC(=O)OC(C)(C)C", "note": "[XJB-5-131]", "values": [{"measurement": "integration into cells and mitochondria (EPR signal of nitroxide radicals)", "setting": "[2]", "result": "concentrated in the mitochondria"}, {"measurement": "integration into cells and mitochondria (EPR signal of nitroxide radicals)", "setting": "[2]; listed as 5a", "result": "integration and one-electron reduction"}, {"measurement": "hemorrhagic shock-induced mucosal hyperpermeability relative to control value", "setting": "[5]", "result": "approximately 60%"}, {"measurement": "survival versus vehicle", "setting": "[6]", "result": "survived significantly longer"}]}, {"smiles": "CC(C)C[C@@H](/C=C/[C@H](Cc1ccccc1)C(=O)N1CCC[C@H]1C(=O)N[C@H](C(=O)N[C@@H](CCCNC(=O)OCc1ccccc1)C(=O)NC1=NCCC(C)S1)C(C)C)NC(=O)OC(C)(C)C", "note": "(stereo partly drawn) [XJB-5-133, Boc-Leu-ψ[(E)-CH═CH]-^DPhe-Pro-Val-Orn(Cbz)-AMT]", "values": [{"measurement": "Fmole/l 0 M mitochondrial protein (relative quantification of conjugate concentration at the target site)", "setting": "[1]", "result": "89.8 Fmole/l 0 M mitochondrial protein"}]}, {"smiles": "CC(C)C[C@@H](/C=C/[C@H](Cc1ccccc1)C(=O)NC1=NCCC(C)S1)NC(=O)OC(C)(C)C", "note": "(stereo partly drawn) [XJB-5-234, Boc-Leu-ψ[(E)-CH═CH]-^DPhe-AMT]", "values": [{"measurement": "Fmole/l 0 M mitochondrial protein (relative quantification of conjugate concentration at the target site)", "setting": "[1]", "result": "1.45 Fmole/l 0 M mitochondrial protein"}]}, {"smiles": "C/C(=C\\[C@H](Cc1ccccc1)C(=O)N1CCC[C@H]1C(=O)N[C@H](C(=O)N[C@@H](CCCNC(=O)OCc1ccccc1)C(=O)NC1=NCCC(C)S1)C(C)C)[C@H](CC(C)C)NC(=O)OC(C)(C)C", "note": "(stereo partly drawn) [XJB-5-241, Boc-Leu-104 [(E)-C(CH3)═CH]-^DPhe-Pro-Val-Orn(Cbz)-AMT]", "values": [{"measurement": "Fmole/l 0 M mitochondrial protein (relative quantification of conjugate concentration at the target site)", "setting": "[1]", "result": "103.3 Fmole/l 0 M mitochondrial protein"}]}]}
